According to the kinase profiling compilation of Christmann-Franck et al. (2016):

Assays:
Test in all cases: KINOMEscan competition binding
Details in all cases: compound 10.0 µM
[1] = target: GAK (human) (UniProt O14976)
[2] = target: DCLK2 (human) (UniProt Q8N568)
[3] = target: FGFR4 (human) (UniProt P22455)
[4] = target: RPS6KA1 KD2 (human) (UniProt Q15418)
[5] = target: PHKG2 (human) (UniProt P15735)
[6] = target: TAOK3 (human) (UniProt Q9H2K8)
[7] = target: RPS6KA2 KD2 (human) (UniProt Q15349)
[8] = target: CAMK2G (human) (UniProt Q13555)
[9] = target: SGK110 (human) (UniProt P0C264)
[10] = target: PLK4 (human) (UniProt O00444)
[11] = target: PLK1 (human) (UniProt P53350)
[12] = target: ROS1 (human) (UniProt P08922)
ROS1 (human), sequence (P08922 whole entry, looked up): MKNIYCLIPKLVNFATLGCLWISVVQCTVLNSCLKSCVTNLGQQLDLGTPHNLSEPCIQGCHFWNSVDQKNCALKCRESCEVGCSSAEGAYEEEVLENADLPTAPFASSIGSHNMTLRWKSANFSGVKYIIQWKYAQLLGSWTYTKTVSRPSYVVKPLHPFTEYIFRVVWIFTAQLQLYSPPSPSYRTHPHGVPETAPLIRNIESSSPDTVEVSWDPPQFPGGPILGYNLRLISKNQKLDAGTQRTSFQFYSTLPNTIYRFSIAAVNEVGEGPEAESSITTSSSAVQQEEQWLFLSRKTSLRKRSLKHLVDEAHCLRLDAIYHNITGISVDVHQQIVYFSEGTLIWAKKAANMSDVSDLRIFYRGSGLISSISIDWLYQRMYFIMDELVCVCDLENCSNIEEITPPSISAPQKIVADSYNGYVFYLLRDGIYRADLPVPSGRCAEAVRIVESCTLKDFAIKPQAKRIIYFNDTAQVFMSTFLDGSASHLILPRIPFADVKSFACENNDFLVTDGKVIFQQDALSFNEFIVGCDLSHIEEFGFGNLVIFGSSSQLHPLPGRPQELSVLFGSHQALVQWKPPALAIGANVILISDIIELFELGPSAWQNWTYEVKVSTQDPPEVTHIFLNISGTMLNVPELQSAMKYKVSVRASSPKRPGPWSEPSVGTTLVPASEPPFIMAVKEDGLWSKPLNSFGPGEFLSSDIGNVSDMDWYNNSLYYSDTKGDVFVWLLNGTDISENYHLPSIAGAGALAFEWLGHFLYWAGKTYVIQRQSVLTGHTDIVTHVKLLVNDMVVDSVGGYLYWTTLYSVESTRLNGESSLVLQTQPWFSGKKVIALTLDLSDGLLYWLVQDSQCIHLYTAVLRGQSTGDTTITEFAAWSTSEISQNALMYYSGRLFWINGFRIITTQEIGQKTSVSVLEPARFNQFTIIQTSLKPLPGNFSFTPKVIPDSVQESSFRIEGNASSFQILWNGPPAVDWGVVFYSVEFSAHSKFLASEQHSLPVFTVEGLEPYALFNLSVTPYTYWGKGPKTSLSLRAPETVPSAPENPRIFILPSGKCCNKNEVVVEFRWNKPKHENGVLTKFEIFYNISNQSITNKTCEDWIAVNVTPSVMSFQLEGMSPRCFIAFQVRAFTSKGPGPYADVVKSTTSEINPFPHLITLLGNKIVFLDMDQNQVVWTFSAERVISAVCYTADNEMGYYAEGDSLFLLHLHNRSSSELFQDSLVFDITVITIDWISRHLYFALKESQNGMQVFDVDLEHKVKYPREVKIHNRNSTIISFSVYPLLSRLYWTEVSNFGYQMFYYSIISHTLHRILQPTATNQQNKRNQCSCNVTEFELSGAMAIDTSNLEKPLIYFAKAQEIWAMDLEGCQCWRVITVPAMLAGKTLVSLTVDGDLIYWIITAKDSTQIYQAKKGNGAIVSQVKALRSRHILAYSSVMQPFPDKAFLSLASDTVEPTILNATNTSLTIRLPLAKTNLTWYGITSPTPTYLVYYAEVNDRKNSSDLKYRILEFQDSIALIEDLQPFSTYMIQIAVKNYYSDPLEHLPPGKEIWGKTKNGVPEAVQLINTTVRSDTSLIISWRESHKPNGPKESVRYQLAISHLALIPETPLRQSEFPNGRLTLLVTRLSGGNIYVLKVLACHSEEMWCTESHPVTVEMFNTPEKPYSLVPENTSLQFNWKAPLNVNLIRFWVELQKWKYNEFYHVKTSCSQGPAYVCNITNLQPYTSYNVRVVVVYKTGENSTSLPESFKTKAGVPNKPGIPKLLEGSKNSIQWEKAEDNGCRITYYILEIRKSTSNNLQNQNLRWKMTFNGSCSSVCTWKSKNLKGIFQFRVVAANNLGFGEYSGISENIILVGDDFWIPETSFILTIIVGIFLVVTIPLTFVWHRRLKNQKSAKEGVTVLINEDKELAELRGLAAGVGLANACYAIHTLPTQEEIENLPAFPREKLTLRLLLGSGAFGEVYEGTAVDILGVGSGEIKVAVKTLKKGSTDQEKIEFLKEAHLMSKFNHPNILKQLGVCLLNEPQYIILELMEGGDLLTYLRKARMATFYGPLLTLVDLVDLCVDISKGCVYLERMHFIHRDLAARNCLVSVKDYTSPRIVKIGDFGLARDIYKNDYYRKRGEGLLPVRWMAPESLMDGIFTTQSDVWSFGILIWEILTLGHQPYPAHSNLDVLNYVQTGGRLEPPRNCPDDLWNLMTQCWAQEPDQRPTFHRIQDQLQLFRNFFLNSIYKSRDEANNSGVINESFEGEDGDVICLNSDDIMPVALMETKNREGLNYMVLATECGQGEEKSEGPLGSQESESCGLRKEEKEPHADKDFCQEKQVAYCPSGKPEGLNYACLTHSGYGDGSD

[13] = target: CSF1R (human) (UniProt P07333)
[14] = target: NUAK1 (human) (UniProt O60285)
[15] = target: STK33 (human) (UniProt Q9BYT3)
[16] = target: PRKD1 (human) (UniProt Q15139)
[17] = target: MAPK7 (human) (UniProt Q13164)
[18] = target: CHEK2 (human) (UniProt O96017)
[19] = system: ABL1 (human), P00519 [F317L]
[20] = target: CAMKK2 (human) (UniProt Q96RR4)
[21] = target: PIK3CG (human) (UniProt P48736)
[22] = target: ALK (human) (UniProt Q9UM73)
ALK (human), sequence (Q9UM73 whole entry, looked up): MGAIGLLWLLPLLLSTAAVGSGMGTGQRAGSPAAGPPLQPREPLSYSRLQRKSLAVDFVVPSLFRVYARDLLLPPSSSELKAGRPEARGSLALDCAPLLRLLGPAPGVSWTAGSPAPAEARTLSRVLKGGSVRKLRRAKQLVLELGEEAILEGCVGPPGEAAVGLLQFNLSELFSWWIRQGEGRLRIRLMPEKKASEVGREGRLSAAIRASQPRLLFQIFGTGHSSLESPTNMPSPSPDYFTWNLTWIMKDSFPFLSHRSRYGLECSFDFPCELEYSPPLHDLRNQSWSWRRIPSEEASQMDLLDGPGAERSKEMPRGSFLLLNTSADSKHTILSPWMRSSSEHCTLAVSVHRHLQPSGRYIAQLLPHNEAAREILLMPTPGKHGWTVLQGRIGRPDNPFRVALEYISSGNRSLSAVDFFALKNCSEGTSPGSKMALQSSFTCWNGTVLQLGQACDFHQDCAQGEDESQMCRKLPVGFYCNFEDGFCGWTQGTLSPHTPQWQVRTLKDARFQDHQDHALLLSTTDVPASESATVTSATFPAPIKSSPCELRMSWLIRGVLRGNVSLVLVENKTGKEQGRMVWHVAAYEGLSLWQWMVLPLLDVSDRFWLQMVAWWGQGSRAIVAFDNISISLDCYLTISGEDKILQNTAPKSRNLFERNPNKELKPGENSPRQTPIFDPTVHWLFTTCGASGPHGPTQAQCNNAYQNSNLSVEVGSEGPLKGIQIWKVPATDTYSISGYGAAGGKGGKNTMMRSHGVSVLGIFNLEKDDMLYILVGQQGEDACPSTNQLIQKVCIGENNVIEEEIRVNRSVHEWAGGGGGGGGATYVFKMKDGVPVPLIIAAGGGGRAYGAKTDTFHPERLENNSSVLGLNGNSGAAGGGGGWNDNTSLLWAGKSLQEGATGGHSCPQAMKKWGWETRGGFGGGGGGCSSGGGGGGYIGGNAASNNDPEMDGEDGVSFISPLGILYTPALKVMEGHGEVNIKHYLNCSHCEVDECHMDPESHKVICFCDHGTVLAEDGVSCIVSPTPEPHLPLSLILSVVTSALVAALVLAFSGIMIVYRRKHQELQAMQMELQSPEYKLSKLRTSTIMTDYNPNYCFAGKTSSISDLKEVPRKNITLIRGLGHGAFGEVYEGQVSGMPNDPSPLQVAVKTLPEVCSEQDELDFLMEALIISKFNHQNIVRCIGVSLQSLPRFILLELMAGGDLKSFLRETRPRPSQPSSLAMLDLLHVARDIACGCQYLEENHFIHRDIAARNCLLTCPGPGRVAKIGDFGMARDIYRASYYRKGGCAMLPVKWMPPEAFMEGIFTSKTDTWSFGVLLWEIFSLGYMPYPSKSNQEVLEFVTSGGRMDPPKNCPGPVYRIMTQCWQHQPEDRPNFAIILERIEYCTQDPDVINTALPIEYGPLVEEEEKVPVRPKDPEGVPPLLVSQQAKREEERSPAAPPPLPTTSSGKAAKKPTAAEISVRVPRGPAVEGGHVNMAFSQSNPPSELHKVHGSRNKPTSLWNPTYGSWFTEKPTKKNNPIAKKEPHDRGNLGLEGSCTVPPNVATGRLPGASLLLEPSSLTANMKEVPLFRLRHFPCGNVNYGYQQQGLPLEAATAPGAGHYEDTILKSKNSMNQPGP

[23] = target: DCLK3 (human) (UniProt Q9C098)
[24] = target: MKNK2 (human) (UniProt Q9HBH9)
[25] = target: MYLK (human) (UniProt Q15746)
[26] = target: PIK3CD (human) (UniProt O00329)
[27] = target: ULK2 (human) (UniProt Q8IYT8)
[28] = target: PTK6 (human) (UniProt Q13882)
[29] = target: CAMK2D (human) (UniProt Q13557)
[30] = target: PRKD2 (human) (UniProt Q9BZL6)
[31] = target: TNK1 (human) (UniProt Q13470)
[32] = target: PTK2 (human) (UniProt Q05397)
PTK2 (human), sequence (Q05397 whole entry, looked up): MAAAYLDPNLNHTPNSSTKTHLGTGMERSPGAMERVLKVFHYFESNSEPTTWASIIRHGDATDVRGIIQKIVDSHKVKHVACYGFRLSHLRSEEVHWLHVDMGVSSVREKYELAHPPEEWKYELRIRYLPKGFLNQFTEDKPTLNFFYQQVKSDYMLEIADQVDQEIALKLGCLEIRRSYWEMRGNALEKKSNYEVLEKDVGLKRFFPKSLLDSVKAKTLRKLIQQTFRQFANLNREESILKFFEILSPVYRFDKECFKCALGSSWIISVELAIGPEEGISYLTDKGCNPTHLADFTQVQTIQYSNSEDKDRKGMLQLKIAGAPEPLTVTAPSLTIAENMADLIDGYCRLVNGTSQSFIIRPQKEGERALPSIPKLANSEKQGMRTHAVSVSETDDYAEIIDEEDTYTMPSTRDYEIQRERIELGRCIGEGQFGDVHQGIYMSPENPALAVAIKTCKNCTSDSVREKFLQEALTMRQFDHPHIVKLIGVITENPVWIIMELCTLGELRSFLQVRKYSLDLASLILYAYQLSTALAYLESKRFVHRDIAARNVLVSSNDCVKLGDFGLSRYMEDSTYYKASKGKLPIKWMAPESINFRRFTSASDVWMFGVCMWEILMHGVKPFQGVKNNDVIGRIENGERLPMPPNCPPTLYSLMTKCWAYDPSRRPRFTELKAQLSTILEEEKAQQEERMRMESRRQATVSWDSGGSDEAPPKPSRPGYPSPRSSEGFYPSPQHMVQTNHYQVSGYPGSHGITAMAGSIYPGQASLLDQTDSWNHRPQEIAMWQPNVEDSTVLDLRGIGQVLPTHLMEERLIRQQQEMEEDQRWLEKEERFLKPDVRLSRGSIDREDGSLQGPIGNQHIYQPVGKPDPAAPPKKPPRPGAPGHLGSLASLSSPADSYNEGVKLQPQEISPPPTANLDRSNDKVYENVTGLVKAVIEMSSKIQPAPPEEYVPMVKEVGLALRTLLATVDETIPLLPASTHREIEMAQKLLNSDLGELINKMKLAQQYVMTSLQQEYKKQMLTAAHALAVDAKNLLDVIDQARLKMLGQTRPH

[33] = target: CAMK2A (human) (UniProt Q9UQM7)
[34] = target: TTK (human) (UniProt P33981)
[35] = target: TAOK1 (human) (UniProt Q7L7X3)
[36] = target: DCLK1 (human) (UniProt O15075)
[37] = target: NUAK2 (human) (UniProt Q9H093)
[38] = target: PRKD3 (human) (UniProt O94806)
[39] = target: ULK1 (human) (UniProt O75385)
[40] = system: ABL1 (human), P00519 [F317I]
[41] = target: FRK (human) (UniProt P42685)
[42] = target: FER (human) (UniProt P16591)
[43] = target: TNK2 (human) (UniProt Q07912)
[44] = target: RPS6KA6 KD2 (human) (UniProt Q9UK32)

kinase still bound, per cent of control [1]: 9.8%
kinase still bound, per cent of control [2]: 0.45%
kinase still bound, per cent of control [3]: 5.6%
kinase still bound, per cent of control [4]: 18%
kinase still bound, per cent of control [5]: 29%
kinase still bound, per cent of control [6]: 2%
kinase still bound, per cent of control [7]: 15%
kinase still bound, per cent of control [8]: 31%
kinase still bound, per cent of control [9]: 30%
kinase still bound, per cent of control [10]: 6.8%
kinase still bound, per cent of control [11]: 9.8%
kinase still bound, per cent of control [12]: 7.6%
kinase still bound, per cent of control [13]: 16%
kinase still bound, per cent of control [14]: 7.6%
kinase still bound, per cent of control [15]: 8.8%
kinase still bound, per cent of control [16]: 3.8%
kinase still bound, per cent of control [17]: 0%
kinase still bound, per cent of control [18]: 30%
kinase still bound, per cent of control [19]: 17%
kinase still bound, per cent of control [20]: 15%
kinase still bound, per cent of control [21]: 31%
kinase still bound, per cent of control [22]: 16%
kinase still bound, per cent of control [23]: 16%
kinase still bound, per cent of control [24]: 0%
kinase still bound, per cent of control [25]: 13%
kinase still bound, per cent of control [26]: 33%
kinase still bound, per cent of control [27]: 0.5%
kinase still bound, per cent of control [28]: 7.6%
kinase still bound, per cent of control [29]: 23%
kinase still bound, per cent of control [30]: 0.55%
kinase still bound, per cent of control [31]: 0.4%
kinase still bound, per cent of control [32]: 16%
kinase still bound, per cent of control [33]: 32%
kinase still bound, per cent of control [34]: 26%
kinase still bound, per cent of control [35]: 4.8%
kinase still bound, per cent of control [36]: 0.65%
kinase still bound, per cent of control [37]: 14%
kinase still bound, per cent of control [38]: 5.4%
kinase still bound, per cent of control [39]: 2.9%
kinase still bound, per cent of control [40]: 5%
kinase still bound, per cent of control [41]: 2.6%
kinase still bound, per cent of control [42]: 32%
kinase still bound, per cent of control [43]: 3.2%
kinase still bound, per cent of control [44]: 4.9%
Compound: COc1cc(N2CCN(C)CC2)ccc1Nc1ncc2c(n1)N(C)c1ccccc1C(=O)N2C
